Test results as given in paper PMC11904033, “Lanatoside C activates the E3 ligase STUB1 to inhibit FOXP3 transcriptional activity and promote antitumor immunity” (EMBO Molecular Medicine, 2025).

Columns and labels:
[1] = biological target: T1, STUB1 (Homo sapiens, UniProt Q9UNE7); test: thermal shift in […] lysate (immunoblot); DARTS; format: biochemical; conditions: 10 uM Lac for 30 min in thermal shift; 30 uM Lac for 3 h in DARTS
T1 construct: full length (303 residues), HA-tagged, ectopically expressed in 293T cells, lysate
T1 sequence (Q9UNE7 1-303): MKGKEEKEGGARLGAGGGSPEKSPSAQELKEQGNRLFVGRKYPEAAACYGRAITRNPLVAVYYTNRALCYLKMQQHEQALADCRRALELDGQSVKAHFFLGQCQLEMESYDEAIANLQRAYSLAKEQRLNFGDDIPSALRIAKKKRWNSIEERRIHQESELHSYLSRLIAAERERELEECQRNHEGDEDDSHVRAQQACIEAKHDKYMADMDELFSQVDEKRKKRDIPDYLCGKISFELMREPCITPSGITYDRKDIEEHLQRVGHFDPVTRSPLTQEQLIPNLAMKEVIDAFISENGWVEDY

[2] = biological target: T2, STUB1 TPR domain (STUB1 1-130) (Homo sapiens, UniProt Q9UNE7); test: isothermal titration calorimetry; format: binding; conditions: read-out: Ka (converted)
T2 construct: N-terminal TPR domain, residues 1-130; ITC: His-tagged from E. coli BL21 (pET-T7-STUB1 1-130-His); thermal shift and point mutants: 1-130-3xFlag6xHis expressed in 293T cells
T2 sequence (Q9UNE7 1-130): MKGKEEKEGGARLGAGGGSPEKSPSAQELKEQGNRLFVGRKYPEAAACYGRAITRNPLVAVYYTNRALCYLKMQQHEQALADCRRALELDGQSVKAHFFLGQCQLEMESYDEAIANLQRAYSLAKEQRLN

CC(=O)O[C@H]1C[C@H](O[C@H]2[C@@H](O)C[C@H](O[C@H]3[C@@H](O)C[C@H](O[C@H]4CC[C@@]5(C)[C@H](CC[C@@H]6[C@@H]5C[C@@H](O)[C@]5(C)[C@@H](C7=CC(=O)OC7)CC[C@]65O)C4)O[C@@H]3C)O[C@@H]2C)O[C@H](C)[C@H]1O[C@@H]1O[C@H](CO)[C@@H](O)[C@H](O)[C@H]1O [Lanatoside C]
thermal shift [1]: Lac directly bound STUB1 as revealed in the thermal shift assay
Kd [2]: 7.69 µM
